From patent US7795261B2, “Substituted 1-piperidin-4-yl-4-pyrrolidin-3-yl-piperazine derivatives and their use as neurokinin antagonists” (Janssen Pharmaceutica NV, priority 2002, dated 2010)

target: NK1 (Homo sapiens, UniProt P25103); experiment: Signal transduction (ST), intracellular Ca++ (FLIPR), NK1 antagonistic activity; format: cell-based; settings: read-out: pIC50 NK1 (converted)
Experimental: (§1) This test evaluates in vitro functional NK1 antagonistic activity. For the measurements of intracellular Ca^++ concentrations the cells were grown on 96-well (black wall/transparent bottom) plates from Costar for 2 days until they reached confluence. The cells were loaded with 2 μM Fluo3 in DMEM containing 0.1% BSA and 2.5 mM probenecid for 1 h at 37° C. They were washed 3× with a Krebs buffer (140 mM NaCl, 1 mM MgCl2×6H2O, 5 mM KCl, 10 mM glucose, 5 mM HEPES; 1.25 mM CaCl2; pH 7.4) containing 2.5 mM probenecid and 0.1% BSA (Ca^++-buffer). The cells were preincubated with a concentration range of antagonists for 20 min at RT and Ca^++-signals after addition of the agonists were measured in a Fluorescence Image Plate Reader (FLIPR from Molecular Devices, Crawley, England). The peak of the Ca^++-transient was considered as the relevant signal and the mean values of corresponding wells were analysed as described below.
The sigmoidal dose response curves were analysed by computerised curve-fitting, using the GraphPad Program. […] For antagonist responses the IC50-value was calculated using non-linear regression. […]

Sequence of NK1 (P25103 whole entry): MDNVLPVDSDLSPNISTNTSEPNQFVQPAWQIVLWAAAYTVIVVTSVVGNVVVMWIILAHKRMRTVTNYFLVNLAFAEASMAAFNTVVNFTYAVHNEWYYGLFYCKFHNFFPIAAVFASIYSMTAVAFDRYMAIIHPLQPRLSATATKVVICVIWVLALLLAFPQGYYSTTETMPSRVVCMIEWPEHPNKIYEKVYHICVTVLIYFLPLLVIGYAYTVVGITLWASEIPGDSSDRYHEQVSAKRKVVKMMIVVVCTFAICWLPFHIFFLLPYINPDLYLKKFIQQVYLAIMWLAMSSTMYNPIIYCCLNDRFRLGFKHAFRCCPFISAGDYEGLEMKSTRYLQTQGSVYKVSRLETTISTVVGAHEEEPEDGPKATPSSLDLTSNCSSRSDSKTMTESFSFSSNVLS

IC50 | SMILES
39.8 nM | O=C(C1CC1)N1CCC(N2CCN([C@@H]3CCN(C(=O)c4cc(C(F)(F)F)cc(C(F)(F)F)c4)[C@H](Cc4ccc(Cl)c(Cl)c4)C3)CC2)C1 (relative stereo) [Compound 143]
12.6 nM | O=C(C1CC1)N1CCC(N2CCN(C3CCN(C(=O)c4cc(C(F)(F)F)cc(C(F)(F)F)c4)C(Cc4ccccc4)C3)CC2)C1 (single isomer, unassigned) [Compound 70]
251 nM | O=C(C1CCOC1)N1CCC(N2CCN(C3CCN(C(=O)c4cc(C(F)(F)F)cc(C(F)(F)F)c4)C(Cc4ccccc4)C3)CC2)C1 (single isomer, unassigned) [Compound 129]
158 nM | O=C(C1CC1)N1CCC(N2CCN(C3CCN(C(=O)c4cc(C(F)(F)F)cc(C(F)(F)F)c4)C(Cc4ccccc4)C3)CC2)C1 (single isomer, unassigned) [Compound 137]
126 nM | O=C([C@@H]1CCCN1)N1CCC(N2CCN([C@H]3CCN(C(=O)c4cc(C(F)(F)F)cc(C(F)(F)F)c4)[C@H](Cc4ccccc4)C3)CC2)C1 (some centres unmarked) [Compound 144]
50.1 nM | CN(C)CCN1CCC[C@H]1C(=O)N1CCC(N2CCN([C@H]3CCN(C(=O)c4cc(C(F)(F)F)cc(C(F)(F)F)c4)[C@H](Cc4ccccc4)C3)CC2)C1 (some centres unmarked) [Compound 185]
100 nM | CC(=O)N1CCC[C@H]1C(=O)N1CCC(N2CCN([C@H]3CCN(C(=O)c4cc(C(F)(F)F)cc(C(F)(F)F)c4)[C@H](Cc4ccccc4)C3)CC2)C1 (some centres unmarked) [Compound 186]
20 nM | O=C(CN1CCCC1)N1CCC(N2CCN(C3CCN(C(=O)c4cc(C(F)(F)F)cc(C(F)(F)F)c4)C(Cc4ccccc4)C3)CC2)C1 (centres unmarked) [Compound 196]
25.1 nM | O=C(CN1CCOCC1)N1CCC(N2CCN([C@H]3CCN(C(=O)c4cc(C(F)(F)F)cc(C(F)(F)F)c4)[C@H](Cc4ccccc4)C3)CC2)C1 (some centres unmarked) [Compound 197]
50.1 nM | O=C(CN1CCNCC1)N1CCC(N2CCN([C@H]3CCN(C(=O)c4cc(C(F)(F)F)cc(C(F)(F)F)c4)[C@H](Cc4ccccc4)C3)CC2)C1 (some centres unmarked) [Compound 201]
39.8 nM | O=C(C1CCNC1)N1CCC(N2CCN([C@H]3CCN(C(=O)c4cc(C(F)(F)F)cc(C(F)(F)F)c4)[C@H](Cc4ccccc4)C3)CC2)C1 (some centres unmarked) [Compound 235]
31.6 nM | O=C(C1CCCNC1)N1CCC(N2CCN([C@H]3CCN(C(=O)c4cc(C(F)(F)F)cc(C(F)(F)F)c4)[C@H](Cc4ccccc4)C3)CC2)C1 (some centres unmarked) [Compound 240]
31.6 nM | O=C(C1CCNCC1)N1CCC(N2CCN(C3CCN(C(=O)c4cc(C(F)(F)F)cc(C(F)(F)F)c4)C(Cc4ccccc4)C3)CC2)C1 (centres unmarked) [Compound 241]
50.1 nM | O=C(C1CC1)N1CC[C@H](N2CCN([C@@H]3CCN(C(=O)c4cc(C(F)(F)F)cc(C(F)(F)F)c4)[C@@H](Cc4ccc(Cl)c(Cl)c4)C3)CC2)C1 [Compound 245]

Second part, the compound before the results:

SMILES | IC50
O=C(c1ccccc1Cl)N1CCC(N2CCN([C@@H]3CCN(C(=O)c4cc(C(F)(F)F)cc(C(F)(F)F)c4)[C@H](Cc4ccc(Cl)c(Cl)c4)C3)CC2)C1 (relative stereo) [Compound 141] | 126 nM
O=C(c1cc(C(F)(F)F)cc(C(F)(F)F)c1)N1CC[C@@H](N2CCN(C3CCN(S(=O)(=O)c4cccs4)C3)CC2)C[C@H]1Cc1ccc(Cl)c(Cl)c1 (relative stereo) [Compound 142] | 126 nM
O=C(c1cc(C(F)(F)F)cc(C(F)(F)F)c1)N1CC[C@H](N2CCN(C3CCN(S(=O)(=O)c4cccs4)C3)CC2)C[C@H]1Cc1ccc(Cl)c(Cl)c1 (relative stereo) [Compound 163] | 25.1 nM
O=C(c1ccccc1Cl)N1CCC(N2CCN(C3CCN(C(=O)c4cc(C(F)(F)F)cc(C(F)(F)F)c4)C(Cc4ccccc4)C3)CC2)C1 (single isomer, unassigned) [Compound 87] | 126 nM
O=C(c1cc(C(F)(F)F)cc(C(F)(F)F)c1)N1CCC(N2CCN(C3CCNC3)CC2)CC1Cc1ccc(F)c(F)c1 (single isomer, unassigned) [Compound 212] | 50.1 nM
O=C(c1cc(C(F)(F)F)cc(C(F)(F)F)c1)N1CCC(N2CCN(C3CCNC3)CC2)CC1Cc1ccc(F)c(F)c1 (single isomer, unassigned) [Compound 225] | 15.8 nM
CC(C)(C)OC(=O)N1CCC(N2CCN(C3CCN(C(=O)c4cc(C(F)(F)F)cc(C(F)(F)F)c4)C(Cc4ccc(Cl)c(Cl)c4)C3)CC2)C1 (single isomer, unassigned) [Compound 243] | 200 nM
O=C(c1cc(C(F)(F)F)cc(C(F)(F)F)c1)N1CCC(N2CCN(C3CCN(Cc4ccccc4)C3)CC2)CC1Cc1ccccc1 (centres unmarked) [Compound 1] | 100 nM
O=C(c1cc(C(F)(F)F)cc(C(F)(F)F)c1)N1CCC(N2CCN(C3CCNC3)CC2)CC1Cc1ccccc1 (centres unmarked) [Compound 2] | 63.1 nM
COC(=O)CCN1CCC(N2CCN(C3CCN(C(=O)c4cc(C(F)(F)F)cc(C(F)(F)F)c4)C(Cc4ccccc4)C3)CC2)C1 (centres unmarked) [Compound 80] | 100 nM
Cc1cc(C)cc(C(=O)N2CC[C@H](N3CCN(C4CCN(C(=O)c5ccoc5)C4)CC3)C[C@H]2Cc2ccccc2)c1 (some centres unmarked) [Compound 85] | 31.6 nM
CN1CCN(C(C(=O)N2CCC(N3CCN([C@H]4CCN(C(=O)c5cc(C(F)(F)F)cc(C(F)(F)F)c5)[C@H](Cc5ccccc5)C4)CC3)C2)c2ccccc2)CC1 (some centres unmarked) [Compound 105] | 63.1 nM
O=C(c1cc(C(F)(F)F)cc(C(F)(F)F)c1)N1CC[C@H](N2CCN(C3CCNC3)CC2)C[C@@H]1Cc1ccccc1 (some centres unmarked) [Compound 118] | 126 nM
O=C(c1ccccc1)N1CCC(N2CCN([C@@H]3CCN(C(=O)c4cc(C(F)(F)F)cc(C(F)(F)F)c4)[C@H](Cc4ccccc4)C3)CC2)C1 (some centres unmarked) [Compound 136] | 200 nM
O=C(c1cc(C(F)(F)F)cc(C(F)(F)F)c1)N1CC[C@H](N2CCN([C@H]3CCNC3)CC2)C[C@H]1Cc1ccccc1 [Compound 148] | 63.1 nM
O=C(c1cc(C(F)(F)F)cc(C(F)(F)F)c1)N1CC[C@H](N2CCN([C@@H]3CCNC3)CC2)C[C@H]1Cc1ccccc1 [Compound 149] | 39.8 nM
Cc1nccn1CC(=O)N1CCC(N2CCN(C3CCN(C(=O)c4cc(C(F)(F)F)cc(C(F)(F)F)c4)C(Cc4ccccc4)C3)CC2)C1 (centres unmarked) [Compound 209] | 20 nM
O=C(c1cc(C(F)(F)F)cc(C(F)(F)F)c1)N1CCC(N2CCN(C3CCNC3)CC2)CC1Cc1ccc(Cl)c(Cl)c1 (centres unmarked) [Compound 244] | 79.4 nM
O=C(c1c(Cl)cccc1Cl)N1CC[C@H](N2CCN([C@@H]3CCN(C(=O)c4cc(C(F)(F)F)cc(C(F)(F)F)c4)[C@@H](Cc4ccc(Cl)c(Cl)c4)C3)CC2)C1 [Compound 246] | 126 nM
CC(C)(C)C(=O)N1CC[C@H](N2CCN([C@@H]3CCN(C(=O)c4cc(C(F)(F)F)cc(C(F)(F)F)c4)[C@@H](Cc4ccc(Cl)c(Cl)c4)C3)CC2)C1 [Compound 247] | 31.6 nM
CC(C)N/C(=C\[N+](=O)[O-])N1CCC(N2CCN(C3CCN(C(=O)c4cc(C(F)(F)F)cc(C(F)(F)F)c4)C(Cc4ccccc4)C3)CC2)C1 (centres unmarked) [Compound 354] | 31.6 nM
COCCOCC(=O)N1CCC(N2CCN([C@H]3CCN(C(=O)c4cc(C(F)(F)F)cc(C(F)(F)F)c4)[C@H](Cc4ccccc4)C3)CC2)C1 (some centres unmarked) [Compound 390] | 20 nM
O=C(c1cc(C(F)(F)F)cc(C(F)(F)F)c1)N1CCC(N2CCN(C3CCN(CCCCO)C3)CC2)CC1Cc1ccc(Cl)c(Cl)c1 (centres unmarked) [Compound 393] | 5.01 nM

target: T1, NK3 (Homo sapiens, UniProt P29371); experiment: Signal transduction (ST), intracellular Ca++ (FLIPR), NK3; format: cell-based; settings: read-out: pIC50 NK3 (converted)
T1 sequence (P29371 1-465): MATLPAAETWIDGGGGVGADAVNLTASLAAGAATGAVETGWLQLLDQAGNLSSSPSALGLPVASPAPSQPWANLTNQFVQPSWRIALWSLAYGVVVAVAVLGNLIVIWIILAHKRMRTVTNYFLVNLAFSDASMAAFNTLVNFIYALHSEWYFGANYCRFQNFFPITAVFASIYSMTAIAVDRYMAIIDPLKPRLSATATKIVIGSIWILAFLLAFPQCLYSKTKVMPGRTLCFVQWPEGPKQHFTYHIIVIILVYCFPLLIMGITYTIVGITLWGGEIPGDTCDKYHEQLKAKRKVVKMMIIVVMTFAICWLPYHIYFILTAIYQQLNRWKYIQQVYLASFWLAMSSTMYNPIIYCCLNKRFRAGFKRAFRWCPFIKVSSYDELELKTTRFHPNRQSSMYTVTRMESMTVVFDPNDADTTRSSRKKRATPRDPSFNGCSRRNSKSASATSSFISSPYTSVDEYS
Experimental: [The procedure below names another target; the source lists this target under the same test.] as §1
The sigmoidal dose response curves were analysed by computerised curve-fitting, using the GraphPad Program. […] For antagonist responses the IC50-value was calculated using non-linear regression.
The last columns indicates—without being limited therefore—for which the compounds might be most suitable. Of course, since for some neurokinin receptors no data was determined, it is obvious that these compounds might be attributed to another suitable use.

IC50 | SMILES
3160 nM | O=C(C1CC1)N1CCC(N2CCN([C@@H]3CCN(C(=O)c4cc(C(F)(F)F)cc(C(F)(F)F)c4)[C@H](Cc4ccc(Cl)c(Cl)c4)C3)CC2)C1 (relative stereo) [Compound 143]
501 nM | O=C(C1CC1)N1CCC(N2CCN(C3CCN(C(=O)c4cc(C(F)(F)F)cc(C(F)(F)F)c4)C(Cc4ccccc4)C3)CC2)C1 (single isomer, unassigned) [Compound 70]
6310 nM | O=C(C1CC1)N1CCC(N2CCN(C3CCN(C(=O)c4cc(C(F)(F)F)cc(C(F)(F)F)c4)C(Cc4ccccc4)C3)CC2)C1 (single isomer, unassigned) [Compound 137]

Further lines, the compound ahead of its results:

SMILES | IC50
O=C(c1ccccc1Cl)N1CCC(N2CCN([C@@H]3CCN(C(=O)c4cc(C(F)(F)F)cc(C(F)(F)F)c4)[C@H](Cc4ccc(Cl)c(Cl)c4)C3)CC2)C1 (relative stereo) [Compound 141] | 3160 nM
O=C(c1cc(C(F)(F)F)cc(C(F)(F)F)c1)N1CC[C@@H](N2CCN(C3CCN(S(=O)(=O)c4cccs4)C3)CC2)C[C@H]1Cc1ccc(Cl)c(Cl)c1 (relative stereo) [Compound 142] | 794 nM
O=C(c1cc(C(F)(F)F)cc(C(F)(F)F)c1)N1CC[C@H](N2CCN(C3CCN(S(=O)(=O)c4cccs4)C3)CC2)C[C@H]1Cc1ccc(Cl)c(Cl)c1 (relative stereo) [Compound 163] | 158 nM
O=C(c1ccccc1Cl)N1CCC(N2CCN(C3CCN(C(=O)c4cc(C(F)(F)F)cc(C(F)(F)F)c4)C(Cc4ccccc4)C3)CC2)C1 (single isomer, unassigned) [Compound 87] | 1260 nM
